# Source: article PMC10302127 (Medicina, 2023)
# What was measured:
# [1] = system: B. subtilis; assay: Antibacterial disc diffusion; format: cell-based, Bacillus subtilis; settings: B. subtilis (G + ve)
# Method: (§1) The antibacterial activity of the synthesized compound was evaluated using the disc diffusion method in accordance with the clinical and laboratory standards institute’s recommendations. Molten Mueller–Hinton agar and Sabouraud dextrose agar media were inoculated with the inoculum at 35 ± 2 °C and then poured into a Petri dish (90 mm). Each sample was soaked on 6 mm absorbent discs in dimethyl sulfoxide (DMSO) and placed on the inoculation plates. After 2 h at 4 °C, the plates were incubated at 35 ± 2 °C for 18–20 h. The inhibition zone diameters were determined. Positive control discs of selected antibiotics were included in each assay; inhibition zones were compared to the reference discs. Negative controls were treated with DMSO, and the assays were performed in triplicate.
# [2] = system: P. aeruginosa; assay: Antibacterial disc diffusion; format: cell-based, Pseudomonas aeruginosa; settings: P. aeruginosa (G − ve)
# Method: as §1
# [3] = system: E. coli; assay: Antibacterial disc diffusion; format: cell-based, Escherichia coli; settings: E. coli (G − ve)
# Method: as §1
# [4] = system: S. typhi; assay: Antibacterial disc diffusion; format: cell-based, Salmonella typhi; settings: S. typhi (G − ve)
# Method: as §1
# [5] = system: S. aureus; assay: Antibacterial disc diffusion; format: cell-based; settings: S. aureus (G + ve) in Table 2, disc diffusion
# Method: as §1
# [6] = system: five bacterial pathogens; assay: Antibacterial disc diffusion, statements on groups of bacteria; format: cell-based
# Method: as §1
# [7] = system: brine shrimp nauplii; assay: Brine shrimp lethality bioassay; settings: 24 and 48 h
# Method: Vials A, B, C, and D contained 4, 8, 16, and 32 μL of material. Each vial received 10 brine shrimp nauplii at […]. Ten nauplii in 5 mL saltwater were used for a control test. The vials were incubated at room temperature for 24–48 h. After incubation, the vials were magnified and counted to determine how many survived. Each concentration has an average nauplii mortality rate.
# [8] = system: E. coli; assay: MIC and MBC microdilution; settings: Escherichia coli
# Method: (§3) Microdilution techniques were employed to calculate the minimum inhibitory concentration (MIC) and the minimum bactericidal concentration (MBC). […] After solidification, the medium incorporated was seeded from suspensions of bacteria at a concentration of 0.5 McFarland standard (1.0 × 10^8 CFU/mL). After 18–20 h of incubation at 35 ± 2 °C, the absence or presence of microbial growth in Petri dishes was determined by examination with the naked eye. […] All compounds were evaluated three times against each microorganism.
# [9] = system: Aspergillus flavus; assay: Mycelial growth inhibition, poisoned food method; format: cell-based; settings: 20 μg/μL in DMSO
# Method: (§2) The potato dextrose agar (PDA)-based antifungal experiment was screened using the food poisoning approach. Sterilized 70 mm glass Petri dishes were filled with 20 mL melted PDA (45 °C). After the medium solidified, sterilized needles placed small amounts of mycelia from the two fungal pathogens in the center of each plate. […] After 48 h at 37 °C, mycelial growth was measured.
# [10] = system: B. cereus; assay: MIC and MBC microdilution; settings: Bacillus cereus
# Method: as §3
# [11] = system: Bacillus cereus; assay: Antibacterial disc diffusion; format: cell-based; settings: as named in text
# Method: as §1
# [12] = system: B. subtilis; assay: MIC and MBC microdilution; settings: Bacillus subtilis
# Method: as §3
# [13] = system: P. aeruginosa; assay: MIC and MBC microdilution; settings: Pseudomonas aeruginosa
# Method: as §3
# [14] = system: S.typhi; assay: MIC and MBC microdilution; settings: Salmonella enterica
# Method: as §3
# [15] = system: Aspergillus niger; assay: Mycelial growth inhibition, poisoned food method; format: cell-based; settings: for Millimeters of Fungal Mycelial Growth Inhibition in DMSO (20 μg/μL): Aspergillus niger, 20 μg/μL in DMSO
# Method: as §2
# [16] = system: EAC (Ehrlich ascites carcinoma) cells; assay: MTT assay, antiproliferative activity; format: cell-based, Swiss albino mouse
# Method: Ehrlich ascites carcinoma (EAC) cells were cultivated in conventional DMEM from a Swiss albino mouse bearing a tumor [45]. A 96-well flat-bottomed cell culture plate with 2 × 10^4 cells in 100 μL was incubated at 37 °C in a CO2 incubator for 24 h. Controls were three wells of untreated EAC cells in DMEM. […] After removing the aliquot, 10 mM PBS and 20 μL of MTT reagent (5 mg/mL MTT in PBS) were added. After another 8 h at 37 °C, the aliquot was drained, and acidic isopropanol (200 μL) was added. Absorbance values at 570 nm were recorded after another 30 min CO2 incubator incubation. The following formula was used to estimate cell proliferation incubation:Proliferation inhibition ratio (%) = (A − B) × 100/A where A and B represent the cellular homogenate OD570 nm from control wells and compound 6-treated wells, respectively.
structure (smiles),measurement,setting,value
"CC[C@H]1OC(=O)[C@H](C)[C@@H](O[C@H]2C[C@@](C)(OC)[C@@H](O)[C@H](C)O2)[C@H](C)[C@@H](O[C@@H]2O[C@H](C)C[C@H](N(C)C)[C@H]2O)[C@](C)(O)C[C@@H](C)CN(C)[C@H](C)[C@@H](O)[C@]1(C)O [Azithromycin, reference compound]",Diameter of Inhibition Zones,[1],** 18 ± 0.10 mm
same,Diameter of Inhibition Zones,[2],** 15 ± 0.10 mm
same,Diameter of Inhibition Zones,[3],** 17 ± 0.50 mm
same,Diameter of Inhibition Zones,[4],** 18 ± 0.90 mm
same,Diameter of Inhibition Zones,[5],** 17 ± 0.50 mm
"O=c1ccn([C@@H]2O[C@H](CO)[C@@H](O)[C@H]2O)c(=O)[nH]1 [Compound 1, uridine, reference compound]",activity against Gram-positive organisms,[6],inactive
same,inhibition among all bacterial types,[6],no inhibition
"CCCCCCCCCCCCCCCC(=O)OC[C@H]1O[C@@H](n2ccc(=O)[nH]c2=O)[C@H](O)[C@@H]1O [Compound 2, 5′-Oxo-palmitoyluridine]",activity against Gram-positive organisms,[6],inactive
same,inhibition among all bacterial types,[6],no inhibition
same,death (brine shrimp mortality),[7],31.21%
"CCCCCCCCCCCCCCCC(=O)OCC1OC(n2ccc(=O)[nH]c2=O)C(OC(=O)CCCCCCCCCCC)C1OC(=O)CCCCCCCCCCC (centres unmarked) [Compound 3, 2′,3′-Di-oxo-lauroyl-5′-oxo-palmitoyluridine]",Diameter of Inhibition Zones,[4],* 11.0 ± 0.0 mm
same,activity against Gram-positive organisms,[6],inactive
same,inhibition against the Gram-negative bacteria P. aeruginosa and S. typhi,[6],reasonable inhibition
same,death (brine shrimp mortality),[7],48.24–49.28%
"CCCCCCCCCCCCCCCC(=O)OCC1OC(n2ccc(=O)[nH]c2=O)C(OC(=O)CCCCCCCCCCCCC)C1OC(=O)CCCCCCCCCCCCC (centres unmarked) [Compound 4, 2′,3′-Di-oxo-myristoyl-5′-oxo-palmitoyluridine]",MIC,[8],0.5 mg/L
same,Diameter of Inhibition Zones,[2],7 ± 0.25 mm
same,Millimeters of Fungal Mycelial Growth Inhibition in DMSO (20 μg/μL),[9],31 ± 0.15 Millimeters
same,MIC,[10],0.13 mg/L
same,Diameter of Inhibition Zones,[5],* 15 ± 0.50 mm
same,inhibition zone,[11],15 ± 0.50 mm
same,MBC,[12],8 mg/L
same,MIC,[12],4 mg/L
same,MBC,[13],16 mg/L
same,MIC,[13],0.5 mg/L
same,inhibition against the Gram-negative bacteria P. aeruginosa and S. typhi,[6],reasonable inhibition
same,death (brine shrimp mortality),[7],48.24–49.28%
same,MBC,[14],16 mg/L
same,MIC,[14],0.5 mg/L
"CCCCCCCCCCCCCCCC(=O)OCC1OC(n2ccc(=O)[nH]c2=O)C(OC(c2ccccc2)(c2ccccc2)c2ccccc2)C1OC(c1ccccc1)(c1ccccc1)c1ccccc1 (centres unmarked) [Compound 5, 5′-oxo-Palmitoyl-2′,3′-di-oxo-trityluridine]",MIC,[8],4 mg/L
same,MBC,[8]; E. coli,8 mg/L
same,inhibition of A. niger,[15],64 ± 0.44%
same,Millimeters of Fungal Mycelial Growth Inhibition in DMSO (20 μg/μL),[15],* 64 ± 0.44 Millimeters
same,Millimeters of Fungal Mycelial Growth Inhibition in DMSO (20 μg/μL),[9],* 66 ± 0.39 Millimeters
same,Diameter of Inhibition Zones,[4],* 12 ± 0.25 mm
same,MIC,[10],1 mg/L
same,MBC,[10]; B. cereus,16 mg/L
same,Diameter of Inhibition Zones,[5],* 16 ± 0.20 mm
same,inhibition zone,[11],16 ± 0.20 mm
same,MBC,[12],8 mg/L
same,MIC,[12],0.5 mg/L
same,death (brine shrimp mortality),[7],34.25%
same,MBC,[14],8 mg/L
same,MIC,[14],0.5 mg/L
"CCCCCCCCCCCCCCCC(=O)OC[C@H]1O[C@@H](n2ccc(=O)[nH]c2=O)[C@H](OC(=O)C=Cc2ccccc2)[C@@H]1OC(=O)C=Cc1ccccc1 [Compound 6, 2′,3′-Di-oxo-cinnamoyl-5′-oxo-palmitoyluridine]",inhibition of A. niger,[15],72 ± 0.95%
same,Millimeters of Fungal Mycelial Growth Inhibition in DMSO (20 μg/μL),[15],* 72 ± 0.95 Millimeters
same,Millimeters of Fungal Mycelial Growth Inhibition in DMSO (20 μg/μL),[9],53 ± 0.33 Millimeters
same,cytotoxicity effects,[16]; 15.625 µg/mL,3.11%
same,cytotoxicity effects,[16]; 31.25 µg/mL,4.41%
same,cytotoxicity effects,[16]; 62.25 µg/mL (62.5 in Figure 5),5.41%
same,cytotoxicity effects,[16]; 125 µg/mL,7.51%
same,cytotoxicity effects,[16]; 250 µg/mL,14.02%
same,cytotoxicity effects,[16]; 500 µg/mL,23.22%
same,IC50,"[16]; Mus musculus, Ehrlich, MTT",> 500 mg/L
same,activity against Gram-positive organisms,[6],inactive
same,inhibition among all bacterial types,[6],no inhibition
"CCCCCCCCCCCCCCCC(=O)OC[C@H]1O[C@@H](n2ccc(=O)[nH]c2=O)[C@H](OC(=O)c2ccc(C(C)(C)C)cc2)[C@@H]1OC(=O)c1ccc(C(C)(C)C)cc1 [Compound 7, 2′,3′-Di-oxo-(4-t-butylbenzoyl)-5′-oxo-palmitoyluridine]",inhibition of A. niger,[15],66 ± 0.41%
same,Millimeters of Fungal Mycelial Growth Inhibition in DMSO (20 μg/μL),[15],* 66 ± 0.41 Millimeters
same,Millimeters of Fungal Mycelial Growth Inhibition in DMSO (20 μg/μL),[9],* 63 ± 0.10 Millimeters
same,Diameter of Inhibition Zones,[4],9 ± 0.00 mm
same,activity against Gram-positive organisms,[6],inactive
same,inhibition against the Gram-negative bacteria P. aeruginosa and S. typhi,[6],reasonable inhibition
same,death (brine shrimp mortality),[7],33.71%
"C[C@@H]1[C@H](O)[C@@H](C)/C=C/C=C/CC/C=C/C=C/C=C/C=C/C(O[C@H]2O[C@H](C)[C@@H](O)[C@H](N)[C@@H]2O)CC2O[C@](O)(CC(O)C(O)CCC(O)CC(O)CC(O)CC(=O)O[C@H]1C)CC(O)C2C(=O)O (some centres unmarked) [Nystatin, reference compound]",inhibition of A. niger,[15],59 ± 0.00%
same,Millimeters of Fungal Mycelial Growth Inhibition in DMSO (20 μg/μL),[15],59 ± 0.00 Millimeters
same,Millimeters of Fungal Mycelial Growth Inhibition in DMSO (20 μg/μL),[9],61 ± 0.00 Millimeters
